The target of one experiment is T1, Aurora A kinase (Homo sapiens, UniProt O14965).
T1 construct: purchased Upstate
T1 sequence (O14965 1-403): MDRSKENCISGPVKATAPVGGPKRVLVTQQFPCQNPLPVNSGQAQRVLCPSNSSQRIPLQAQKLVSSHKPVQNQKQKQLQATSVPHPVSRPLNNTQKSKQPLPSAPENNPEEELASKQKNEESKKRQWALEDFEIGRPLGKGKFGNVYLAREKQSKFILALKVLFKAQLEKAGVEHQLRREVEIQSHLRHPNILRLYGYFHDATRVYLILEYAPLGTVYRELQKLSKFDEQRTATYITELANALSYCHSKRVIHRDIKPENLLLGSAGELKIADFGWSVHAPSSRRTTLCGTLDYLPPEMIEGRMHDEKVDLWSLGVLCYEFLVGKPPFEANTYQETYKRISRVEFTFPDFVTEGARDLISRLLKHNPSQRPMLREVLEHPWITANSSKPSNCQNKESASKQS
Kind of experiment: Aurora A kinase assay ([γ-33P]ATP, CHOCKtide substrate). In kind it is biochemical. Particulars: for inhibition at 1 µM: 1.0 μM test compound. The gist of the method: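 Recombinant Aurora A (1 ng) or Aurora B (2.5 ng) incubated with test compound, CHOCKtide (1 μg) and [γ-33P]ATP/ATP at 10 μM (Aurora A) or 40 μM (Aurora B), 30 min at 33 °C. Stopped with phosphoric acid; filter-bound 33P counted; IC50 = half-maximal inhibition.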

The target of a further experiment is T2, Flt3 kinase (Homo sapiens, UniProt P36888).
T2 construct: recombinant N-terminal 6×His-tagged Flt3 kinase domain construct expressed from baculovirus; 6xHis (N); made in house
T2 sequence (P36888 610-943 limits assumed): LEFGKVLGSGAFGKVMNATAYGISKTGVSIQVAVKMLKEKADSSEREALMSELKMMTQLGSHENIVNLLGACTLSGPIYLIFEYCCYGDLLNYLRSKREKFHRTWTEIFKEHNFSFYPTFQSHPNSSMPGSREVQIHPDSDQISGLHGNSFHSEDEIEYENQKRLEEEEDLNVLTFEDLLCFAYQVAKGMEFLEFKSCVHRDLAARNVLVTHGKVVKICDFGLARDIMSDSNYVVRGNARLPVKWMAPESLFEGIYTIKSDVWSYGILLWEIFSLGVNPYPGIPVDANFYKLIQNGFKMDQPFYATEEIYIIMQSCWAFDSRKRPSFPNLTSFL
Kind of experiment: Flt3 kinase assay (33P incorporation into Poly(Glu-Tyr)). The format is biochemical. As to conditions: 100 nM test compound; read-out: Inhibition at 100 nM (%) Flt-3. Summed up:
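Baculovirus-expressed His-tagged Flt3 kinase domain (5 ng) with Poly(Glu-Tyr) 4:1 substrate, 100 μM ATP plus [33P]-γ-ATP, in MOPS pH 7.0 buffer, 30 min at 30 °C. Compound tested at a single 100 nM concentration; filter-bound radioactivity counted and percent inhibition calculated relative to DMSO control.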

The source of these data is US7897602B2, “Indolinone compounds as kinase inhibitors” (Development Center for Biotechnology, priority 2009, dated 2011).

Where a name gives a salt, the structure may show the parent alone.

The IC50 is the concentration at which inhibition is half-maximal. Lower therefore signals higher potency. The inhibition is the relative decrease from the control value, in per cent. Turning to `NS(=O)(=O)c1ccc2c(c1)/C(=C/c1[nH]c3c(c1CCC(=O)O)C(=O)CCC3)C(=O)N2` [DCB-70095, (Z)-5-sulfamoyl-3-((3-carboxyethyl-4-oxo-4,5,6,7-tetrahydro-1H-indol-2-yl)methylene)indolin-2-one], on Aurora A kinase, the IC50 stood at 61.2 nM and the inhibition at 1 µM amounted to 94.3%. On Flt3 kinase, the inhibition at 0.1 µM amounted to 27.2%.

`CCOC(=O)CCc1c(/C=C2\C(=O)Nc3ccc(NC(=O)c4ccccc4)cc32)[nH]c2c1C(=O)CCC2` [DCB-70096, (Z)-5-benazmido-3-((3-(3-ethoxy-3-oxopropyl)-4-oxo-4,5,6,7-tetrahydro-1H-indol-2-yl)methylene)indolin-2-one] registered an inhibition at 1 µM at Aurora A kinase of 38.6%. The inhibition at 0.1 µM at Flt3 kinase is 5.9%.

Take `O=C(O)CCc1c(/C=C2\C(=O)Nc3ccc(NC(=O)c4ccccc4)cc32)[nH]c2c1C(=O)CCC2` [DCB-70097, (Z)-5-benazmido-3-((3-carboxyethyl-4-oxo-4,5,6,7-tetrahydro-1H-indol-2-yl)methylene)indolin-2-one]: the inhibition at 1 µM against Aurora A kinase is 64.7%. Moreover, at Flt3 kinase, the inhibition at 0.1 µM amounted to 2%.

`CCOC(=O)CCc1c(/C=C2\C(=O)Nc3cc(-c4ccc(F)cc4)ccc32)[nH]c2c1C(=O)CCC2` [DCB-70098, (Z)-6-(4-fluorophenyl)-3-((3-(3-ethoxy-3-oxopropyl)-4-oxo-4,5,6,7-tetrahydro-1H-indol-2-yl)methylene)indolin-2-one] yielded an inhibition at 1 µM at Aurora A kinase of 4%. Further, the inhibition at 0.1 µM at Flt3 kinase amounted to 4.8%.

At Aurora A kinase, `O=C(O)CCc1c(/C=C2\C(=O)Nc3cc(-c4ccc(F)cc4)ccc32)[nH]c2c1C(=O)CCC2` [DCB-70099, (Z)-6-(4-fluorophenyl)-3-((3-carboxyethyl-4-oxo-4,5,6,7-tetrahydro-1H-indol-2-yl)methylene)indolin-2-one] had an inhibition at 1 µM of 47.5%. Besides, on Flt3 kinase, the inhibition at 0.1 µM amounted to 6.9%.

Consider `CCOC(=O)CCc1c(/C=C2\C(=O)Nc3cc(-c4cc(F)cc(F)c4)ccc32)[nH]c2c1C(=O)CCC2` [DCB-70100, (Z)-6-(3,5-difluorophenyl)-3-((3-(3-ethoxy-3-oxopropyl)-4-oxo-4,5,6,7-tetrahydro-1H-indol-2-yl)methylene)indolin-2-one], for which the inhibition at 1 µM at Aurora A kinase stood at 9.9%. Besides, the inhibition at 0.1 µM at Flt3 kinase was 12.5%.

At Aurora A kinase, `O=C(O)CCc1c(/C=C2\C(=O)Nc3cc(-c4cc(F)cc(F)c4)ccc32)[nH]c2c1C(=O)CCC2` [DCB-70101, (Z)-6-(3,5-difluorophenyl)-3-((3-carboxyethyl-4-oxo-4,5,6,7-tetrahydro-1H-indol-2-yl)methylene)indolin-2-one] gave an inhibition at 1 µM of 38.5%. Besides, on Flt3 kinase, the inhibition at 0.1 µM was 8.5%.

For the molecule `CCOC(=O)CCc1c(/C=C2\C(=O)Nc3ccc(NS(=O)(=O)c4ccccc4)cc32)[nH]c2c1C(=O)CCC2` [DCB-70102, (Z)-5-phenylsulfonamido-3-((3-(3-ethoxy-3-oxopropyl)-4-oxo-4,5,6,7-tetrahydro-1H-indol-2-yl)methylene)indolin-2-one], at Aurora A kinase, 83.5 nM corresponded to half-maximal inhibition (IC50) and the inhibition at 1 µM stood at 88.8%. Besides, the inhibition at 0.1 µM at Flt3 kinase came to 75.9%.

Consider `O=C(O)CCc1c(/C=C2\C(=O)Nc3ccc(NS(=O)(=O)c4ccccc4)cc32)[nH]c2c1C(=O)CCC2` [DCB-70103, (Z)-5-phenylsulfonamido-3-((3-carboxyethyl-4-oxo-4,5,6,7-tetrahydro-1H-indol-2-yl)methylene)indolin-2-one], for which, at Aurora A kinase, the IC50 is 12.3 nM and the inhibition at 1 µM worked out at 98.9%. The inhibition at 0.1 µM at Flt3 kinase was found to be 44.7%.

At Aurora A kinase, `CC(=O)Nc1ccc2c(c1)/C(=C/c1[nH]c3c(c1CCC(=O)O)C(=O)CCC3)C(=O)N2` [DCB-70104, (Z)-5-acetamido-3-((3-carboxyethyl-4-oxo-4,5,6,7-tetrahydro-1H-indol-2-yl)methylene)indolin-2-one] came in with an IC50 of 252 nM and an inhibition at 1 µM of 83.6%. Moreover, the inhibition at 0.1 µM on Flt3 kinase was determined as 13.9%.

At Aurora A kinase, `O=C(O)CCc1c(/C=C2\C(=O)Nc3ccc(S(=O)(=O)N4CCc5ccccc54)cc32)[nH]c2c1C(=O)CCC2` [DCB-70106, (Z)-5-(indolin-1-ylsulfonyl)-3-((3-carboxyethyl-4-oxo-4,5,6,7-tetrahydro-1H-indol-2-yl)methylene)indolin-2-one] showed an IC50 of 8.1 nM and an inhibition at 1 µM of 99%. Besides, the inhibition at 0.1 µM on Flt3 kinase came out at 10.2%.

At Aurora A kinase, `CN1CCN(S(=O)(=O)c2ccc3c(c2)/C(=C/c2[nH]c4c(c2CCC(=O)O)C(=O)CCC4)C(=O)N3)CC1` [DCB-70107, (Z)-5-(4-methylpiperazin-1-ylsunfonyl)-3-((3-carboxyethyl-4-oxo-4,5,6,7-tetrahydro-1H-indol-2-yl)methylene)indolin-2-one hydrochloride] yielded an inhibition at 1 µM of 36%. For the same molecule, the inhibition at 0.1 µM at Flt3 kinase stood at 10.8%.

As to `CCOC(=O)CCc1c(/C=C2\C(=O)Nc3ccc(-c4ccc(F)cc4)cc32)[nH]c2c1C(=O)CCC2` [DCB-70108, (Z)-5-(4-fluorophenyl)-3-((3-(3-ethoxy-3-oxopropyl)-4-oxo-4,5,6,7-tetrahydro-1H-indol-2-yl)methylene)indolin-2-one], the inhibition at 1 µM against Aurora A kinase worked out at 7.5%. For the same molecule, the inhibition at 0.1 µM at Flt3 kinase came to 11.8%.

`O=C(O)CCc1c(/C=C2\C(=O)Nc3ccc(-c4ccc(F)cc4)cc32)[nH]c2c1C(=O)CCC2` [DCB-70109, (Z)-5-(4-fluorophenyl)-3-((3-carboxyethyl-4-oxo-4,5,6,7-tetrahydro-1H-indol-2-yl)methylene)indolin-2-one] had an inhibition at 1 µM at Aurora A kinase of 69.1%. Besides, the inhibition at 0.1 µM at Flt3 kinase was determined as 19.2%.

In the case of `O=C(O)CCc1c(/C=C2\C(=O)Nc3ccc(S(=O)(=O)N4CCCCC4)cc32)[nH]c2c1C(=O)CCC2` [DCB-70114, (Z)-5-(piperidin-1-ylsulfonyl)-3-((3-carboxyethyl-4-oxo-4,5,6,7-tetrahydro-1H-indol-2-yl)methylene)indolin-2-one], on Aurora A kinase, it took 14 nM to reach half-maximal inhibition (IC50) and 1 µM produced 99.9% inhibition. Moreover, the inhibition at 0.1 µM at Flt3 kinase is 12%.

In the case of `C=CS(=O)(=O)c1ccc2c(c1)/C(=C/c1[nH]c3c(c1CCC(=O)O)C(=O)CCC3)C(=O)N2` [DCB-70115, (Z)-5-vinylsulfonyl-3-((3-carboxyethyl-4-oxo-4,5,6,7-tetrahydro-1H-indol-2-yl)methylene)indolin-2-one], the inhibition at 1 µM at Aurora A kinase worked out at 99.4%. The inhibition at 0.1 µM at Flt3 kinase was 26.8%.

At Aurora A kinase, `CCS(=O)(=O)c1ccc2c(c1)/C(=C/c1[nH]c3c(c1CCC(=O)O)C(=O)CCC3)C(=O)N2` [DCB-70116, (Z)-5-ethylsulfonyl-3-((3-carboxyethyl-4-oxo-4,5,6,7-tetrahydro-1H-indol-2-yl)methylene)indolin-2-one] displayed an inhibition at 1 µM of 100%. Also, the inhibition at 0.1 µM at Flt3 kinase was 19.4%.

Molecule `CNS(=O)(=O)c1ccc2c(c1)/C(=C/c1[nH]c3c(c1CCC(=O)N1CCN(C)CC1)C(=O)CCC3)C(=O)N2` [DCB-70117] yielded an inhibition at 1 µM against Aurora A kinase of 34.9%. Moreover, the inhibition at 0.1 µM at Flt3 kinase stood at 48.3%.

Turning to `CCOC(=O)CCc1c(/C=C2\C(=O)Nc3ccc(NS(=O)(=O)CC)cc32)[nH]c2c1C(=O)CCC2` [DCB-70118, (Z)-5-ethylsulfonamido-3-((3-(3-ethoxy-3-oxopropyl)-4-oxo-4,5,6,7-tetrahydro-1H-indol-2-yl)methylene)indolin-2-one], on Aurora A kinase, the inhibition at 1 µM was determined as 81.2%. The inhibition at 0.1 µM at Flt3 kinase came out at 12.7%.
